For experiment [1], the system named is T. cruzi amastigotes in H9c2 cells. Put plainly: Image-based infection assay, intracellular amastigotes in H9c2 host cells. The experiment is classed as cell-based. The conditions noted are these: Trypanosoma cruzi, read-out: EC50 against T. cruzi amastigotes in H9c2 cells. The method, then:
To determine EC50 to kill intracellular amastigotes in H9c2 host cells, we used an image-based assay previously described in Alonso-Padilla et al. ([56]). Briefly, T. cruzi trypomastigotes (from LLC-MK2 supernatant) were used to infect H9c2 rat cardiomyocytes overnight. After washing, cells were incubated for 48 h in fresh DMEM, then seeded (1.5 × 10^3 cells/well) into 384-well plates with 50 µL assay volume (0.4% DMSO) containing 0.2 µL of compounds. After 72 h, cells were washed, fixed with 4% paraformaldehyde, and stained with Hoechst 33,342 (4 µg/mL). Images (five per well) were acquired using an Operetta microscope (20× objective) and analyzed with Columbus software. Data on cell count and infection ratio were processed in GraphPad Prism 9.5.0.

The target of experiment [2] is T. cruzi IMPDH (Trypanosoma cruzi, UniProt Q4CUG6). The experiment is described as follows: biochemical. The method, then:
(§1) Compounds were assayed at a single concentration of 10 μM. They were provided by GSK (GlaxoSmithKline) in a 384-well ready-to-use assay microplate containing 25 nL of each sample at 10 mM (100% DMSO). […] Velocities at steady state were calculated in the plate reader (CLARIOstar, BMG LabTech) as the maximum slope. […] After 15 min, resorufin fluorescence (Ex = 570 nm; Em = 590 nm) was measured in a plate reader (CLARIOstar, BMG LabTech). Data were normalized and plotted using GraphPad Prism 9.5.0.
The above-mentioned diaphorase-coupled assay was used. […] TcIMPDH activity was normalized, and the IC50 was calculated using GraphPad Prism 9.5.0.

Experiment [3] concerns the target human IMPDH isoenzymes. Particulars: cited from earlier work.
For experiment [4], the system named is T. cruzi. More on the design: method as in PMID 12070425. Particulars: cited from earlier work.
The test system of experiment [5] is human IMPDHs. The conditions noted are these: read-out: Km of human IMPDHs for substrate; cited from earlier work.
In experiment [6] the test system is L. donovani IMPDH. The conditions noted are these: read-out: Km of L. donovani IMPDH for substrate; cited from earlier work.
Experiment [7] relates to recombinant TcIMPDH. The experiment is described as follows: TcIMPDH Michaelis-Menten kinetics, NADH fluorescence direct assay. The experiment is classed as biochemical, Trypanosoma cruzi. Particulars: 25°C, pH 7, other substrate at 1 mM, 1 μM enzyme. The method, then: Em = 485 nm) at 25°C, in black 384-wells microplates. Fluorescence was recorded every 30 s over 10 min using a CLARIOstar plate reader (BMG LabTech) and steady-state velocities were calculated from the maximum slope of the fluorescence curve. All reactions were performed in triplicate, under optimized buffer conditions: 50 mM tri-sodium citrate (pH 7), 100 mM KCl, and 1 mM DTT. For both substrates, 1 μM of purified recombinant […] was used.

Experiment [8] deals with T. brucei IMPDH. More on the design: method as in PMID 23369253. The conditions noted are these: read-out: Km of T. brucei IMPDH for substrate; cited from earlier work.
Experiment [9] has as its system CYP51. More on the design: method as in PMID 25740547. Particulars: cited from earlier work.
Experiment [10] deals with TcIMPDH (Trypanosoma cruzi, UniProt Q4CUG6). The experiment is described as follows: Chagas Box single-concentration screening for TcIMPDH inhibitors. The experiment is classed as biochemical. How it is done: as §1
Chain of TcIMPDH (Q4CUG6 entry or part of it): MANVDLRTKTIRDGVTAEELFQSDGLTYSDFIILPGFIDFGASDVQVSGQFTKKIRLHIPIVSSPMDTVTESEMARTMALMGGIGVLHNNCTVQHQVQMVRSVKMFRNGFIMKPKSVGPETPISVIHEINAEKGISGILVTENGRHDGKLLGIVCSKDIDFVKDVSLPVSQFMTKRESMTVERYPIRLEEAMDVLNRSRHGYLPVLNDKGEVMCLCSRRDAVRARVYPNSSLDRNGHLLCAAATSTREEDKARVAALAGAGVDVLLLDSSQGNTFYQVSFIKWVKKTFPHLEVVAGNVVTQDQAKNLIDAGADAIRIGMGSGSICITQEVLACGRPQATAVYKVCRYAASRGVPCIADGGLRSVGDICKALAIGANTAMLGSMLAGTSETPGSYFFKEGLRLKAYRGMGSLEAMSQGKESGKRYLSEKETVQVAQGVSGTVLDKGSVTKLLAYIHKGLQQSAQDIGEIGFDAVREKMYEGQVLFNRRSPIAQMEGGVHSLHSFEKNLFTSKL
Experiment [11] deals with T. cruzi amastigotes. More on the design: method as in PMID 25740547. Particulars: calculated from reported pEC50 value; read-out: EC50 anti-amastigote activity, previously reported; cited from earlier work.
The mark [12] stands for this setting: H9c2, 72 h, image-based, at least two biological replicates.
Setting [13] is: read-out: IC50 against T. cruzi IMPDH.

This is an account of results in publication PMC12959148, “Exploring T. cruzi IMPDH as a promising target through Chagas Box screening and AVN-944 inhibition” (Antimicrobial Agents and Chemotherapy, 2026).

Molecules are shown by their SMILES. Values joined by “and” are separate entries in the source; they are usually repeats but may differ in a detail not shown here. Identical values can stand only once. “Also recorded” adds a separate entry of the source. Like-named read-outs stand apart in the source and are kept apart here.

Chain of T. cruzi IMPDH (Q4CUG6 entry or part of it): as above

One may read the EC50 as the concentration that produces a half-maximal response. A word on the IC50: it is the concentration that gives 50% inhibition. With `COc1cc(NC(=O)Nc2cccc(CNC(=O)O[C@@H]3CCOC3)c2)ccc1-c1cnco1` [(R)-Merimepodib], the EC50 in experiment [1] (setting [12]) turned out to be 3000 nM. The IC50 in experiment [2] stood at 370 nM.

Take `COc1cc(NC(=O)Nc2cccc(CNC(=O)O[C@H]3CCOC3)c2)ccc1-c1cnco1` [(S)-Merimepodib]: the EC50 in [1] (setting [12]) came to 4800 nM. Besides, the half-inhibitory concentration (IC50) in [2] stood at 210 nM.

Usually Ki stands for the dissociation constant of the complex between target and ligand, obtained from inhibition or displacement. With `CC[C@H](CC#N)OC(=O)N[C@@H](C)c1cccc(NC(=O)Nc2ccc(-c3cnco3)c(OC)c2)c1` [AVN-944], the EC50 in experiment [1] (H9c2, 72 h) worked out at 400 nM. For the same molecule, in experiment [3], the Ki was 6 to 10 nM. In experiment [2], half-maximal inhibition (IC50) required 200 nM and the Ki is roughly 81 nM.

For `O=C(Cn1ccnc1[N+](=O)[O-])NCc1ccccc1` [Benznidazole], in experiment [1] (setting [12]), the EC50 is 3000 nM.

Take `NC(=O)c1ncn([C@@H]2O[C@H](CO)[C@@H](O)[C@H]2O)c1O` [Mizoribine]: in [2], the “inhibition of TcIMPDH activity” value is “did not show measurable inhibition; also recorded: inactive”.

Take `COc1c(C)c2c(c(O)c1C/C=C(\C)CCC(=O)OCCN1CCOCC1)C(=O)OC2` [Mycophenolate mofetil]: in experiment [1] (setting [12]), the EC50 amounted to 1500 nM. The half-maximal inhibitory concentration (IC50) in [2] (setting [13]) was 4400 nM. Also, in experiment [4], the “parasitemia in Chagas murine model” value was “reduction of parasitemia” and the “survival / parasitological cure in Chagas murine model” value is given as “fails to improve survival outcomes or achieve parasitological cure”.

What is called Km is the concentration of substrate that gives half-maximal velocity. As for `NC(=O)c1ccc[n+]([C@@H]2O[C@H](COP(=O)([O-])OP(=O)(O)OC[C@H]3O[C@@H](n4cnc5c(N)ncnc54)[C@H](O)[C@@H]3O)[C@@H](O)[C@H]2O)c1` [NAD^+, nicotinamide adenine dinucleotide oxidized form], the Michaelis constant (Km) is 6 to 70 µM in experiment [5], 390 µM in [6], 292 µM in experiment [7] and 1300 µM in experiment [8].

By inhibition is commonly meant the change of the read-out against control, counted positive when it falls. With `COc1cc(NC(=O)Nc2cccc(CNC(=O)OC3CCCCC3)c2)ccc1-c1cnco1` [TCMDC-143376], the IC50 in experiment [2] (setting [13]) was 4000 nM; in [9], roughly 25000 nM; in [10] (estimated from inhibition at the fixed concentration 10 μM, read-out: IC50 suggested by screening), less than 10000 nM. Further, the inhibition at 10 µM in [10] (10 μM compound, two independent runs, read-out: inhibition of TcIMPDH in primary screening) lay within 55 to 60%. Besides, in experiment [11], the EC50 is ~15900 nM and 15900 nM.
